{
  "source": "paper PMC2837273",
  "about": "(Drug metabolism and disposition: the biological fate of …, 2008)",
  "key": {"[1]": {"biological_target": "T1, rat Abcg2 (Rattus norvegicus, UniProt Q80W57)", "T1 sequence (Q80W57 1-657)": "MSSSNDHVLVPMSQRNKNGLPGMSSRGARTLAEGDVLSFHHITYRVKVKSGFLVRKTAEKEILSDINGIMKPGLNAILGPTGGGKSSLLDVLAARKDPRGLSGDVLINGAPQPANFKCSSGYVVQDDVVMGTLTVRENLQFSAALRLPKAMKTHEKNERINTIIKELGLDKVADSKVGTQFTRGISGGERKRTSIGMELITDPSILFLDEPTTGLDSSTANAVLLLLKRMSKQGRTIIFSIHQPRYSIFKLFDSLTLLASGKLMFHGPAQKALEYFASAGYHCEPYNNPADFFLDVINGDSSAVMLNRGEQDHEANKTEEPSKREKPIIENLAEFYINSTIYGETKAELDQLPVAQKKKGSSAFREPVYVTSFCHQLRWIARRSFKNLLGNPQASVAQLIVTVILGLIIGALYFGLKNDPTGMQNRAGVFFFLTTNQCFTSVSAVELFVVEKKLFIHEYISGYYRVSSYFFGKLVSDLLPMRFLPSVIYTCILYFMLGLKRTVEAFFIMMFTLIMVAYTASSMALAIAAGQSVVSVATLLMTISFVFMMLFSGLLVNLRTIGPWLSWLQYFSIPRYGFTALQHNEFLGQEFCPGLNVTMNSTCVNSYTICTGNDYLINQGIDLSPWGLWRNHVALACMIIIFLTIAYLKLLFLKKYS", "type": "cell-based"}, "[2]": {"test_system": "human ABCG2", "conditions": "read-out: IC50 on efflux or accumulation; cell lines transfected with human ABCG2; ref Ahmed-Belkacem et al., 2005; Pan et al., 2007; cited from earlier work"}, "[3]": {"test_system": "Abcg2", "experiment": "GF120918 \"chemical knockout\" of nitrofurantoin transfer into rat milk", "type": "in vivo, Sprague Dawley rat", "conditions": "GF120918 10 mg/kg treated group vs control; lactating rats"}, "[4]": {"biological_target": "T1, rat Abcg2", "experiment": "Hoechst 33342 accumulation in MDCKII-rAbcg2 cells", "type": "cell-based", "conditions": "1 μM GF120918, 10μM Hoechst 33342"}, "[5]": {"test_system": "Abcg2", "conditions": "wild-type and P-gp deficient mice; ref Cisternino et al., 2004; cited from earlier work"}, "[6]": {"test_system": "human BCRP", "conditions": "polarized cell lines; ref Merino et al., 2005; cited from earlier work"}, "[7]": {"test_system": "murine Bcrp1", "conditions": "polarized cell lines; ref Merino et al., 2005; cited from earlier work"}, "[8]": {"test_system": "Bcrp1", "conditions": "ref Merino et al., 2005, cited from earlier work"}, "[9]": {"conditions": "MDCKII-rat Abcg2 vs MDCKII-empty cells, 10μM nitrofurantoin"}},
  "note": "pIC50: −log10 of the molar value. “Also recorded” adds a separate entry of the source. Like-named read-outs stand apart in the source and are kept apart here.",
  "data": [
    {"compound": "COc1cc2c(cc1OC)CN(CCc1ccc(NC(=O)c3cccc4c(=O)c5cccc(OC)c5[nH]c34)cc1)CC2", "note": "[GF120918, N-(4-[2-(1,2,3,4-tetrahydro-6,7-dimethoxy-2-isoquinolinyl)ethyl]-phenyl)-9,10-dihydro-5-methoxy-9-oxo-4-acridine carboxamide]", "values": [
      {"measurement": "effect on nitrofurantoin transport/efflux by rat Abcg2", "setting": "[1]; 1 μM GF120918, MDCKII-rAbcg2 cells", "value": "largely reversed; also recorded: effectively inhibit"},
      {"measurement": "pIC50", "setting": "[2]", "value": "~6.52"},
      {"measurement": "reduction in the M/S of nitrofurantoin", "setting": "[3]", "value": 93, "unit": "%"},
      {"measurement": "effect on Hoechst 33342 efflux phenotype (reduced accumulation)", "setting": "[4]", "value": "reversed; also recorded: effectively inhibit"}
    ]},
    {"compound": "O=C1c2c(O)ccc(O)c2C(=O)c2c(NCCNCCO)ccc(NCCNCCO)c21", "note": "[mitoxantrone]", "values": [
      {"measurement": "accumulation in the presence of GF120918", "setting": "[5]", "value": "significantly increased"}
    ]},
    {"compound": "O=C1CN(/N=C/c2ccc([N+](=O)[O-])o2)C(=O)N1", "note": "[nitrofurantoin, Nitrofurantoin]", "values": [
      {"measurement": "transport by human BCRP", "setting": "[6]", "value": "efficiently transported"},
      {"measurement": "decrease in basolateral transport", "setting": "[1]; [9]", "value": 55, "unit": "%"},
      {"measurement": "increase in apical directed transport", "setting": "[1]; [9]", "value": 7.5, "unit": "fold"},
      {"measurement": "transport by murine Bcrp1", "setting": "[7]", "value": "efficiently transported"},
      {"measurement": "area under the concentration time curve, Bcrp1 knockout vs wild-type mice", "setting": "[8]; intravenous administration", "value": 2, "unit": "fold"},
      {"measurement": "area under the concentration time curve, Bcrp1 knockout vs wild-type mice", "setting": "[8]; oral administration", "value": 4, "unit": "fold"}
    ]}
  ]
}
